ChEMBL document CHEMBL1136262, “4-Alkoxy-2,6-diaminopyrimidine derivatives: inhibitors of cyclin dependent kinases 1 and 2” (Bioorg Med Chem Lett, 2003)

Legend:
[1] = target: T1, Cyclin-dependent kinase 1/cyclin B1 (Homo sapiens, UniProt P06493+P14635); test: Inhibition of Cyclin dependent kinase 1-cyclin B1 from starfish oocytes at 10 uM; settings: Asteroidea, Oocyte
[2] = target: T2, Cyclin-dependent kinase 2/cyclin A (Homo sapiens) (UniProt P24941+P20248+P78396); test: Inhibition of human Cyclin-dependent kinase 2 cyclin A3 at 10 uM; format: protein-complex assay
[3] = target: Cyclin-dependent kinase 2/cyclin A (Homo sapiens, UniProt P24941); test: Inhibition of human Cyclin-dependent kinase 2 cyclin A3 at 12.5 uM ATP; format: protein-complex assay
[4] = target: T2, Cyclin-dependent kinase 2/cyclin A (Homo sapiens); test: Inhibition of human Cyclin-dependent kinase 2 cyclin A3 at 100 uM; format: protein-complex assay
[5] = target: T1, Cyclin-dependent kinase 1/cyclin B1; test: Inhibition of Cyclin dependent kinase 1-cyclin B1 from starfish oocytes at 100 uM; settings: Asteroidea, Oocyte

T1 sequence (P06493 whole entry, looked up): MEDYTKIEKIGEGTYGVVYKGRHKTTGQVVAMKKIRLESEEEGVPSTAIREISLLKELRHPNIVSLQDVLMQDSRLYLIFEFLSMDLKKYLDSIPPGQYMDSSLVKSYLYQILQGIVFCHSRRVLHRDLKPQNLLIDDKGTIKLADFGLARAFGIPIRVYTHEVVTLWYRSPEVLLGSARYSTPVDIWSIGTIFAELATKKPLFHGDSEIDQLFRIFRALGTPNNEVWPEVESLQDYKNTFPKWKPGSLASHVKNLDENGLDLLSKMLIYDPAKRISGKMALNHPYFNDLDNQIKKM
T1 sequence (P14635 whole entry, looked up): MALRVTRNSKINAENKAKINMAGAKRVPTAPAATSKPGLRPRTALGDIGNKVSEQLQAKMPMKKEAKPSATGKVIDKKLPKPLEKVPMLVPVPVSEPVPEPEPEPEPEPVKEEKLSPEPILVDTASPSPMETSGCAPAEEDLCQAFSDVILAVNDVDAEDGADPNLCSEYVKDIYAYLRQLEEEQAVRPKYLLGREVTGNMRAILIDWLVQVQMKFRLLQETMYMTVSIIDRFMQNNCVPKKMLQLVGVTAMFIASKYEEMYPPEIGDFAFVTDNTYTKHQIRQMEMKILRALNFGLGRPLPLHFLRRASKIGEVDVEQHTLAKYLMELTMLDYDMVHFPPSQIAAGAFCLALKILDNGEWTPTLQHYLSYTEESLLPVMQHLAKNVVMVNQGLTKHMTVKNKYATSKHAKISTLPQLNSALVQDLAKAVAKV

Question: `Nc1cc(OCC2CCCCC2)nc(N)n1` was tested. Which inhibition [1] did it give?
Answer: The inhibition was 4%.

Question: And the inhibition [2]?
Answer: Its inhibition is 7%.

Question: How did the IC50 [3] turn out when `Nc1nc(N)c(N=O)c(OCC2CC=CCC2)n1` (configuration not stated) was run?
Answer: The IC50 was 5 µM.

Question: How did the IC50 [3] turn out when `Nc1nc(N)c(N=O)c(OC[C@@H]2NCCC2=O)n1` was run?
Answer: Its IC50 is 65 µM.

Question: With `Nc1nc(N)c(/C=N/O)c(OCC2CCCCC2)n1` as the compound, how does the inhibition [4] read?
Answer: Its inhibition is 37%.

Question: And the inhibition [5]?
Answer: Its inhibition is 25%.

Question: Which results are given for `Nc1nc(Nc2ccccc2)c(N=O)c(OCC2CCCCC2)n1`?
Answer: inhibition [4]: 47%; inhibition [5]: 23%

Question: What does the source list for `CCCCCOc1nc(N)nc(N)c1N=O`?
Answer: inhibition [1]: 35%; inhibition [2]: 36%

Question: Which IC50 [3] does the source give for `Nc1nc(N)c(N=O)c(OCc2ccccc2)n1` here?
Answer: Its IC50 is 27 µM.

Question: How did the inhibition [4] turn out when `CC(=O)Nc1nc(N)nc(OCC2CCCCC2)c1N=O` was run?
Answer: The inhibition was 28%.

Question: What about the inhibition [5] of the same compound?
Answer: Its inhibition is 36%.

Question: Which inhibition [4] does the source give for `COc1ccc(Nc2nc(N)nc(OCC3CCCCC3)c2N=O)cc1` here?
Answer: Its inhibition is 8%.

Question: And the inhibition [5]?
Answer: The inhibition was 7%.

Question: What does the source list for `CCCCCCCOc1nc(N)nc(N)c1N=O`?
Answer: inhibition [1]: 17%; inhibition [2]: 22%

Question: How did the inhibition [1] turn out when `Nc1nc(N)c(C(=O)c2ccccc2)c(OCC2CCCCC2)n1` was run?
Answer: Its inhibition is 21%.

Question: And the inhibition [2]?
Answer: Its inhibition is 6%.

Question: How did the inhibition [4] turn out when `Nc1nc(N)c(N)c(OCC2CCCCC2)n1` was run?
Answer: Its inhibition is 52%.

Question: And the inhibition [5]?
Answer: Its inhibition is 40%.

Question: `Nc1nc(N)c(/C=N/OCc2ccccc2)c(OCC2CCCCC2)n1` was tested. Which inhibition [1] did it give?
Answer: The inhibition was 5%.

Question: And the inhibition [2]?
Answer: The inhibition was 3%.

Question: Which results are given for `Nc1cc(OCC2CC=CCC2)nc(N)n1` (configuration not stated)?
Answer: inhibition [1]: 16%; inhibition [2]: 8%

Question: Which inhibition [4] does the source give for `NC(=O)N/N=C/c1c(N)nc(N)nc1OCC1CCCCC1` here?
Answer: The inhibition was 44%.

Question: What about the inhibition [5] of the same compound?
Answer: The inhibition was 61%.

Question: With `Nc1nc(N)c(C(O)c2ccccc2)c(OCC2CCCCC2)n1` (configuration not stated) as the compound, how does the inhibition [4] read?
Answer: The inhibition was 12%.

Question: And the inhibition [5]?
Answer: The inhibition was 4%.

Question: What does the source list for `Nc1nc(N)c(C=O)c(OCC2CCCCC2)n1`?
Answer: inhibition [1]: 35%; inhibition [2]: 43%

Question: What does the source list for `CO/N=C/c1c(N)nc(N)nc1OCC1CCCCC1`?
Answer: inhibition [1]: 13%; inhibition [2]: 13%

Question: Which results are given for `Nc1nc(NC(=O)OCc2ccccc2)c(N=O)c(OCC2CCCCC2)n1`?
Answer: inhibition [1]: 14%; inhibition [2]: 11%

Question: With `COC(=O)Nc1nc(N)nc(OCC2CCCCC2)c1N=O` as the compound, how does the inhibition [4] read?
Answer: The inhibition was 6%.

Question: And the inhibition [5]?
Answer: The inhibition was 8%.
